Measured values published in patent US12030896B2, “PIKfyve inhibitors” (Mayo Foundation for Medical Education and Research, priority 2018, dated 2024).
Where “and” joins values, the source holds several entries; their conditions need not be identical. Equal entries are not always repeated. Where two headings read alike, the source gives them in different places.

What was measured:
[1] = test system: cells in culture; test: Vacuolization activity in cells in culture; type: cell-based
Source text: As used herein the term “EC50 (μM)” refers to the μM concentration of a compound that is required for 50% activity in a vacuolization assay.
Example 2 is a biotinylated derivative of the compound of Example 1.

[2] = Pharmacokinetic study of Example 3 in mouse (IV, IP); type: in vivo, C57 Mouse
Protocol: Species: C57 Mouse. Dose Route: IV&IP. Formulation Vehicle: IV&IP: 10% DMSO/30% PEG400/60% Saline. Dose Level: IV (5 mg/kg) and IP (30 mg/kg). Dose Volume: IV (5 mL/kg) and IP (10 mL/kg). Formulation concentrations: IV (1 mg/mL) and IP (3 mg/mL). LLOQ: IV (2 ng/mL) and IP (10 ng/mL).

[3] = 5 mg/kg IV, individual animals 101M-103M
[4] = 30 mg/kg IP, individual animals 201M-203M

With `Cc1ccc(Nc2nc(N/N=C/c3c[nH]c4ccccc34)cc(N3CCOCC3)n2)cc1` [Example 3, (E)-4-(2-((1H-indol-3-yl)methylene)hydrazinyl)-6-morpholino-N-(p-tolyl)pyrimidin-2-amine] the EC50 [1] was 4 nM, the Plasma concentrations ([2]; 5 mg/kg IV, 0.08 h, individual animals 101M-103M) was 9197.2 ng/mL and 4387.4 ng/mL and 7116.5 ng/mL and the Plasma concentrations ([2]; 5 mg/kg IV, 0.25 h, individual animals 101M-103M) was 7195.4 ng/mL and 2758.6 ng/mL and 3627.2 ng/mL. The Plasma concentrations ([2]; 5 mg/kg IV, 0.50 h, individual animals 101M-103M) was 1641.4 ng/mL and 2830.9 ng/mL, the Plasma concentrations ([2]; 5 mg/kg IV, 1.00 h, individual animals 101M-103M) was 944.6 ng/mL and 1358.7 ng/mL and the Plasma concentrations ([2]; 5 mg/kg IV, 2.00 h, individual animals 101M-103M) was 355.3 ng/mL and 348.7 ng/mL. For the same compound, the Plasma concentrations ([2]; 5 mg/kg IV, 4.00 h, individual animals 101M-103M) was 71.0 ng/mL and 80.3 ng/mL, the Plasma concentrations ([2]; 5 mg/kg IV, 8.00 h, individual animals 101M-103M) was 35.2 ng/mL and 37.8 ng/mL and the Plasma concentrations ([2]; 5 mg/kg IV, 24.00 h, individual animals 101M-103M, LLOQ 2 ng/mL) was “BLQ”. For the same compound, the AUCINF_pred [2, 3] was 3424.1 ng·h/mL and 4892.0 ng·h/mL, the AUClast [2, 3] was 3387.7 ng·h/mL and 4862.4 ng·h/mL and the Cl_pred [2, 3] was 15.2 mL/min/kg and 24.3 mL/min/kg and 17 mL/min/kg. The Cmax [2, 3] was 9197.2 ng/mL and 4387.4 ng/mL and 7116.5 ng/mL, the “HL_Lambda_z (T1/2, h)” value [2, 3] was 0.98 h and 0.85 h and the MRTlast [2, 3] was 0.90 h and 0.77 h. For the same compound, the Vz_pred [2, 3] was 1.12 L/kg and 2.06 L/kg and 1.25 L/kg, the Cl_pred ([2]; 5 mg/kg IV, mean) was 18.8 mL/min/kg and the Vz_pred ([2]; 5 mg/kg IV, mean) was 1.48 L/kg. The Plasma concentrations ([2]; 30 mg/kg IP, 0.25 h, individual animals 201M-203M) was 1507.7 ng/mL and 971.3 ng/mL, the Plasma concentrations ([2]; 30 mg/kg IP, 0.50 h, individual animals 201M-203M) was 2007.7 ng/mL and 1751.8 ng/mL and the Plasma concentrations ([2]; 30 mg/kg IP, 1.00 h, individual animals 201M-203M) was 3178.8 ng/mL and 2919.1 ng/mL. For the same compound, the Plasma concentrations ([2]; 30 mg/kg IP, 2.00 h, individual animals 201M-203M) was 3158.8 ng/mL and 3638.0 ng/mL, the Plasma concentrations ([2]; 30 mg/kg IP, 4.00 h, individual animals 201M-203M) was 2115.5 ng/mL and 1962.2 ng/mL and the Plasma concentrations ([2]; 30 mg/kg IP, 8.00 h, individual animals 201M-203M) was 1428.1 ng/mL and 1227.0 ng/mL. The Plasma concentrations ([2]; 30 mg/kg IP, 24.00 h, individual animals 201M-203M) was 185.0 ng/mL and 145.1 ng/mL, the AUCINF_pred [2, 4] was 29976.8 ng·h/mL and 27188.2 ng·h/mL and the AUClast [2, 4] was 28429.1 ng·h/mL and 26046.4 ng·h/mL. The Cl_F_pred [2, 4] was 22 mL/min/kg and 16.7 mL/min/kg and 18.3 mL/min/kg, the Cmax [2, 4] was 3178.8 ng/mL and 3638.0 ng/mL and the F % [2, 4] was 79.64% and 103.54% and 94.86%. The “HL_Lambda_z (T1/2, h)” value [2, 4] was 5.85 h and 5.52 h, the MRTlast [2, 4] was 5.45 h and 5.15 h and the Tmax [2, 4] was 2.00 h. For the same compound, the Vz_F_pred [2, 4] was 10.11 L/kg and 8.44 L/kg and 8.78 L/kg, the Cl_F_pred ([2]; 30 mg/kg IP, mean) was 19 mL/min/kg and the Vz_F_pred ([2]; 30 mg/kg IP, mean) was 9.11 L/kg. The concentration at 0.25 h ([2]; C57, mouse, plasma, intraperitoneal, 30 mg/kg, 30 mg/kg IP, 0.25 h, individual animals 201M-203M, read-out: Plasma concentrations) was 1490 ng/mL, the concentration at 0.25 h ([2]; C57, mouse, plasma, intraperitoneal, 30 mg/kg, 30 mg/kg IP, 0.25 h, mean, read-out: Plasma concentrations) was 1320 ng/mL and the concentration at 0.5 h ([2]; C57, mouse, plasma, intraperitoneal, 30 mg/kg, 30 mg/kg IP, 0.50 h, individual animals 201M-203M, read-out: Plasma concentrations) was 2270 ng/mL. The concentration at 0.5 h ([2]; C57, mouse, plasma, intraperitoneal, 30 mg/kg, 30 mg/kg IP, 0.50 h, mean, read-out: Plasma concentrations) was 2010 ng/mL, the concentration at 1 h ([2]; C57, mouse, plasma, intraperitoneal, 30 mg/kg, 30 mg/kg IP, 1.00 h, individual animals 201M-203M, read-out: Plasma concentrations) was 2990 ng/mL and the concentration at 1 h ([2]; C57, mouse, plasma, intraperitoneal, 30 mg/kg, 30 mg/kg IP, 1.00 h, mean, read-out: Plasma concentrations) was 3030 ng/mL. The concentration at 2 h ([2]; C57, mouse, plasma, intraperitoneal, 30 mg/kg, 30 mg/kg IP, 2.00 h, individual animals 201M-203M, read-out: Plasma concentrations) was 2830 ng/mL.
